IC50 data for one compound are collected here from BindingDB's records for patent US10744117 (The Scripps Research Institute; The University of Toledo, 2020).

The term IC50 denotes the concentration needed to halve the response being measured. Read a high IC50 as lower potency.

Structures are written as SMILES.

The target of the experiment is T1, Peroxisome proliferator-activated receptor gamma (Homo sapiens, UniProt P37231).
T1 sequence (P37231 whole entry): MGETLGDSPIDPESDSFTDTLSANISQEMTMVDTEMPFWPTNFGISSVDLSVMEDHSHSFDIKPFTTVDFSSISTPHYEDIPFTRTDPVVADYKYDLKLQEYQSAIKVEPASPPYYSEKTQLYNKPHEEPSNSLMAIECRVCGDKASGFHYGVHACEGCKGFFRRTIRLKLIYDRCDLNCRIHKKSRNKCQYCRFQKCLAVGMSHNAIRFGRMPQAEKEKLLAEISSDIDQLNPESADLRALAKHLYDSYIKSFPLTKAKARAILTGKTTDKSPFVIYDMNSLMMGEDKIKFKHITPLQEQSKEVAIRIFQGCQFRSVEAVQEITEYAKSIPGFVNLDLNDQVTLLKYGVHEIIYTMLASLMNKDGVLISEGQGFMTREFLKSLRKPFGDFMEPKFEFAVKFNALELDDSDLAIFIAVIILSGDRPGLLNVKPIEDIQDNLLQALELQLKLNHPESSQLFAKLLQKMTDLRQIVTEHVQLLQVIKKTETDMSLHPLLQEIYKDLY

In the case of `Cc1c(C)n(Cc2ccc(-c3ccc(Cl)c(O[C@H](C)C(=O)O)c3)cc2)c2ccc(C(=O)N[C@@H](C)c3ccc(C(C)(C)C)cc3)cc12` [US10744117, Compound IA-58], the half-maximal inhibitory concentration (IC50) was found to be 15 µM.
